“Also recorded” adds a separate entry of the source. Like-named read-outs stand apart in the source and are kept apart here.
Columns and labels:
scn1lab mutant zebrafish [1] = test: Toxicity in larvae after 90 min drug exposure (heartbeat, escape response); assay type: in vivo, zebrafish (Danio rerio)
Experimental: (§1) Seizure monitoring. At 5 dpf individual zebrafish larvae were placed into a single well of a clear flat-bottomed 96-well microplate containing embryo media. Larvae were selected randomly as sex determination is not possible at this stage of development. All drug screening experiments were conducted in an unbiased manner by investigators blinded to the test compounds and all files coded for post hoc analysis. Microplates were placed inside the DanioVision and acclimated for 20 min at room temperature. Locomotion plots were obtained for each well at a recording epoch of 10 min using EthoVision XT software (DanioVision, Noldus Information Technology). Seizure scoring was performed using the following three-stage scale established for pentylenetetrazole-induced seizures: Stage 0, no or very little swim activity; Stage I, increased, brief bouts of swim activity; Stage II, rapid “whirlpool-like” circling swim behavior; and Stage III, paroxysmal whole-body clonus-like convulsions, and a brief loss of posture. WT fish are typically scored at Stage 0 or I. Plots were analyzed for distance travelled (in millimeters) and mean velocity (in millimeters per second). After 90 mins of drug exposure larvae were examined for toxic side-effects. Compounds that decreased or stopped the larva heartbeat, or reduced or eliminated the escape response when touched, were considered toxic.

human 5-HT2AR [2] = target: T1, human 5-HT2AR (Homo sapiens, UniProt P28223); conditions: known drugs and commercial compounds; read-out: binding affinity (Ki) 5-HT2A / 5-HT2AR; cited from earlier work
T1 construct: expressed in transfected cells

human 5-HT2CR [3] = target: T2, human 5-HT2CR (Homo sapiens, UniProt P28335); conditions: known drugs and commercial compounds; read-out: binding affinity (Ki) 5-HT2C / 5-HT2CR; cited from earlier work
T2 construct: expressed in transfected cells
T2 sequence (P28335 33-458): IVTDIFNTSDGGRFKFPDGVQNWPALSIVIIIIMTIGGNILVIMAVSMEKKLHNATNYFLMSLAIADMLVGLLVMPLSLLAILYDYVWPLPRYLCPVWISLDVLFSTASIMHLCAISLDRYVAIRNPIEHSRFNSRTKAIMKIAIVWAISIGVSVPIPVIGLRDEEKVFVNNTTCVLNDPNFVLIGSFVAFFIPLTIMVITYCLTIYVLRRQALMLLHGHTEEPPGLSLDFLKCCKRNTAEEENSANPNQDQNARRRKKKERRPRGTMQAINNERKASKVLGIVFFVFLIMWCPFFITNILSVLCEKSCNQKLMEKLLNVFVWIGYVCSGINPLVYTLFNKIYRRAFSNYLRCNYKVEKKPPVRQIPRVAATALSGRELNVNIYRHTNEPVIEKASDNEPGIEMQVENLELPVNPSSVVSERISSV

human 5-HT2AR [4] = target: T1, human 5-HT2AR; test: biochemical; assay type: binding
Experimental: (§2) Receptor Binding Assays. In vitro binding assay and Ki data were performed by the US National Institute of Mental Health Psychoactive Drug Screening Program (NIMH PDSP). Drugs were screened against recombinant, stably expressed human 5-HT2AR, 5-HT2BR, 5-HT2CR and H1. For specific binding assays please refer to detailed procedures at https://pdspdb.unc.edu/pdspWeb/ (Besnard, J. et al., Nature, 492, 215-220, 2012).

human 5-HT2BR [5] = target: T3, human 5-HT2BR (Homo sapiens, UniProt P41595); test: biochemical; assay type: binding; conditions: for Ki: read-out: binding affinity (Ki) 5-HT2BR; for specificity / selectivity for 5-HT2BR over other 5-HT2R subtypes: radioligand binding
T3 construct: expressed in transfected cells
Experimental: as §2

human 5-HT2CR [6] = target: T2, human 5-HT2CR; test: Radioligand binding assay (NIMH PDSP), 5-HT2CR
Experimental: as §2

human 5-HT2R = test: Radioligand binding assays (NIMH PDSP), 5-HT2R subtypes together; conditions: 5-HT2AR, 5-HT2BR, 5-HT2CR
Experimental: Receptor Binding Assays. In vitro binding assay and Ki data were performed by the US National Institute of Mental Health Psychoactive Drug Screening Program (NIMH PDSP). Drugs were screened against recombinant, stably expressed human 5-HT2AR, 5-HT2BR, 5-HT2CR and H1.

human H1 receptor = human H1 receptor (Homo sapiens, UniProt P35367); test: Radioligand binding assay (NIMH PDSP), H1; parameters: expressed in transfected cells; conditions: read-out: binding affinity (Ki) H1
Experimental: as §2

scn1lab mutant zebrafish [7] = test: Locomotion assay of high-velocity seizure-like swim behavior; assay type: in vivo, zebrafish (Danio rerio); conditions: for suppression of seizure-like swim behavior (change in mean velocity): independently resynthesized compounds retested at 10, 50, 100 and 250 μM; for suppression of seizure-like swim behavior (change in mean swim velocity): initial library screen at 100 μM and 250 μM, 5 dpf larvae, threshold reduction ≥40%
Text: Zebrafish maintenance. Zebrafish were raised under standard laboratory conditions in accordance with requirements outlined in the Guide for the Care and Use of Animals (ebrary Inc., 2011) and experiments were approved by the Institutional Animal Care and Use Committee (protocol #AN108659-03). Embryos were obtained by natural spawning of scn1lab (didy^s552) heterozygous animals that had been outcrossed to TL strain. Homozygous scn1lab mutants (n=2500) have dispersed melanosomes and appear visibly darker by 3 dpf compared to WT larvae.
as §1
Statistics. Data are presented as the mean±standard error of the mean (SEM), unless otherwise stated. For behavior analysis, the threshold for a change in mean swim velocity ≥40% (>1.5×SD of 250 control treated scn1lab) is considered significant. For comparison between more than two groups one-way ANOVA analysis was used. […] Differences considered statistically significant are indicated with asterisks (*P<0.05; **P<0.01).

scn1lab mutant zebrafish [8] = test: Local field potential (LFP) electrophysiology of electrographic seizure events; assay type: in vivo, zebrafish (Danio rerio); conditions: 10 min LFP recording, 5 dpf larvae
Experimental: For electrophysiology studies, zebrafish larvae were anesthetized with cold and immobilized in 1.2% agarose; local field potential (LFP) recordings were obtained from forebrain or optic tectum structures using a single-electrode approach, as previously described (Baraban, S. C. et al., Neuroscience, 131, 759-768, 2005). Agarose-embedded LFP recording sessions of 10 min were obtained at 1 kHz. Epileptiform events were identified post hoc and defined as multi-spike or poly-spike upward or downward membrane deflections greater than 3× baseline noise level and 150-250 ms in duration (interictal-like) or greater than 5× baseline noise, multi-spike and >500 ms in duration (ictal-like); both events were counted using threshold detection settings in Clampfit (Molecular Devices; Sunnyvale, Calif.). During electrophysiology experiments larvae were continuously monitored for blood flow and heart rate using an Axiocam digital camera at video frame rate.
Monitoring electrographic brain activity to confirm seizure suppression is an essential assay to eliminate false positives from behavioral testing (Griffin, A. et al., Frontiers in Pharmacology, 9, 2018). By placing a microelectrode into a visually identified brain region of an agar-immobilized zebrafish larval, stable local field potential (LFP) recordings can be monitored for several hours (Baraban, S. C. et al., Nat Commun, 4, 2410, 2013). At 5 dpf LFP recordings of scn1Lab zebrafish larvae show an average of 250 abnormal electrographic seizure events during a 10 min recording epoch.

human 5-HT2BR [9] = target: T3, human 5-HT2BR; conditions: known drugs and commercial compounds; read-out: binding affinity (Ki) 5-HT2B / 5-HT2BR; cited from earlier work
[10] = read-out: binding affinity (Ki) 5-HT2AR
[11] = read-out: binding affinity (Ki) 5-HT2CR
[12] = clemizole analogs, recombinant human receptor
[13] = 30 and 90 min exposure, threshold ≥40%

T3 sequence (P41595 whole entry): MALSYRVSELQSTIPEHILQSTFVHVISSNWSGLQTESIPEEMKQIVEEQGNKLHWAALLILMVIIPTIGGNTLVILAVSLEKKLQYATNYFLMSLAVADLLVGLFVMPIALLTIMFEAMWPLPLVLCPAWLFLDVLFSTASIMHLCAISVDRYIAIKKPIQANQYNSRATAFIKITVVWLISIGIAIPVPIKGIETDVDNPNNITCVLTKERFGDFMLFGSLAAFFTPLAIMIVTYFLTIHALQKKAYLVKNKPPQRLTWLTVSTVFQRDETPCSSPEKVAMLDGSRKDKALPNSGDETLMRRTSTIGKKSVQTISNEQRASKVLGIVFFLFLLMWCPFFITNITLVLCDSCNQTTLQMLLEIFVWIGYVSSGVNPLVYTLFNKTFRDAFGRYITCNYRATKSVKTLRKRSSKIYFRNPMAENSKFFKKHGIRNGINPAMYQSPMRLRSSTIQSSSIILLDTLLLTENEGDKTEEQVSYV
T1 sequence (P28223 whole entry): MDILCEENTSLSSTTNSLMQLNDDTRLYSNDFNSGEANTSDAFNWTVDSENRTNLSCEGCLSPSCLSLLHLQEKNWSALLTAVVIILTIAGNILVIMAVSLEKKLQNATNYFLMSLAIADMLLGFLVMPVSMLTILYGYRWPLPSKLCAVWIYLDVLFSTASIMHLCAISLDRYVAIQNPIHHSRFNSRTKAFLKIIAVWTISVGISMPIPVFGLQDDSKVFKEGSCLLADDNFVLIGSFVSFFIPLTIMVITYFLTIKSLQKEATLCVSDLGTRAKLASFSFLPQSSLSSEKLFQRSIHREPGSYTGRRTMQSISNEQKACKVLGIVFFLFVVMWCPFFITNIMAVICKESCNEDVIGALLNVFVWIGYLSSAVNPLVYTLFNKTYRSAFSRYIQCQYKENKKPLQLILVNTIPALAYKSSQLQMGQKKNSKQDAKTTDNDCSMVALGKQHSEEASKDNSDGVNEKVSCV
Sequence of human H1 receptor (P35367 whole entry): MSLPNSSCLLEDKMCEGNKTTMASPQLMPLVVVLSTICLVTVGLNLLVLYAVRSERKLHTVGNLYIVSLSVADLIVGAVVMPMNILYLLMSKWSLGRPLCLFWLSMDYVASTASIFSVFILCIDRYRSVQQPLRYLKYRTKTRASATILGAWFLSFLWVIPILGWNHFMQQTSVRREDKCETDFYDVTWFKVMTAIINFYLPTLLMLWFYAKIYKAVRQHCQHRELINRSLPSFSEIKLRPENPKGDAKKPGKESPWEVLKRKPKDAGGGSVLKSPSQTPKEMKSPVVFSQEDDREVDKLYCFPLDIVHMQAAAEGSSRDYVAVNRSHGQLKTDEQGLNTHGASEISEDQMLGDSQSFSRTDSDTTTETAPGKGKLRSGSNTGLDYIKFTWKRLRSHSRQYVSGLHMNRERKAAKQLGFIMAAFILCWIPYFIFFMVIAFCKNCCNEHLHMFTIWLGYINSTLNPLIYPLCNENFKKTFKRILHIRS

Structure (SMILES)	Ki (human 5-HT2AR [4]; [10]) [µM]	Ki (human 5-HT2BR [5]) [µM]	Ki (human 5-HT2CR [6]; [11]) [µM]	Ki (human H1 receptor) [µM]	specificity / selectivity for 5-HT2BR over other 5-HT2R subtypes (human 5-HT2BR [5])	Ki (human 5-HT2BR [5]; [12]) [µM]	suppression of seizure-like swim behavior (change in mean velocity) (scn1lab mutant zebrafish [7]; [13])	suppression of seizure-like swim behavior (change in mean swim velocity) (scn1lab mutant zebrafish [7])	frequency of electrographic seizure (epileptiform) events (scn1lab mutant zebrafish [8]; 100 μM)	Ki (human H1 receptor; [12]) [µM]	also measured
c1cnc(N2CCN(Cc3ccc4c(c3)OCO4)CC2)nc1 [piribedil]	–	–	–	–	–	–	–	–	–	–	toxicity after 90-min exposure (scn1lab mutant zebrafish [1]; 100 μM): toxicity; toxicity after 90-min exposure (scn1lab mutant zebrafish [1]; 250 μM): toxicity; Ki (human 5-HT2AR [2]): > 10 µM; Ki (human 5-HT2CR [3]): > 10 µM
N#Cc1cccc(Cn2c(CN3CCCC3)nc3ccccc32)c1 [Compound 10]	> 10	> 10	> 10	0.351	–	–	–	–	–	–	binding to any human 5-HT2R (human 5-HT2R): no significant binding
CC(C)C[C@H]1C(=O)N2CCC[C@H]2[C@]2(O)O[C@](NC(=O)[C@@H]3C=C4c5cccc6[nH]c(Br)c(c56)C[C@H]4N(C)C3)(C(C)C)C(=O)N12 [bromocriptine]	–	–	–	–	–	–	–	–	–	–	toxicity after 90-min exposure (scn1lab mutant zebrafish [1]; concentrations higher than 10 μM): toxicity
Clc1ccc(Cn2c(CN3CCOCC3)nc3ccccc32)cc1 [Compound 23]	> 10	0.515	> 10	0.034	selectivity for 5-HT2BR	–	–	–	–	–	toxicity after 90-min exposure (scn1lab mutant zebrafish [1]; initial library screen, concentration not given): toxic
FC1(F)CCC(Cn2c(CN3CCCC3)nc3ccccc32)CC1 [Compound 17]	> 10	> 10	> 10	0.137	–	–	–	–	–	–	binding to any human 5-HT2R (human 5-HT2R): no significant binding
CC[C@@H](CO)NC(=O)[C@@H]1C=C2c3cccc4[nH]cc(c34)C[C@H]2N(C)C1 [methylergonovine, reference compound]	–	–	–	–	–	–	–	–	–	–	effect on seizure-like swim behavior (change in mean velocity) (scn1lab mutant zebrafish [7]; commercial 5-HT2BR/dopamine agonists, three concentrations, 30 and 90 min exposure, threshold ≥40%): suppressed convulsive swim behaviors in a concentration-dependent manner; frequency of electrographic seizure (epileptiform) events (scn1lab mutant zebrafish [8]; 250 μM): significant changes in the frequency of events; also recorded: significantly suppressed the frequency of electrographic seizure events; Ki (human 5-HT2BR [9]): 0.0022 µM; Ki (human 5-HT2CR [3]): 0.0046 µM
c1ccc2c(c1)nc(CN1CCCC1)n2CC1CCCC1 [Compound 20, 1-(Cyclopentylmethyl)-2-[(pyrrolidin-1-yl)methyl]-1H-benzimidazole]	> 10	–	> 10	–	specificity for 5-HT2BR over other 5-HT2R subtypes; also recorded: significant preference for 5-HT2BR	0.772	reduced the high-velocity seizure-like swim behavior	effective in suppressing	significant changes in the frequency of events; also recorded: significant suppression of electrographic seizure activity	0.161	–
FC(F)(F)c1ccc(Cn2c(CN3CCCC3)nc3ccccc32)cc1 [Compound 6, 2-[(Pyrrolidin-1-yl)methyl]-1-{[4-(trifluoromethyl)phenyl]methyl}-1H-benzimidazole]	> 10	–	> 10	–	specificity for 5-HT2BR over other 5-HT2R subtypes; also recorded: significant preference for 5-HT2BR	0.285	reduced the high-velocity seizure-like swim behavior	effective in suppressing	significant changes in the frequency of events; also recorded: significant suppression of electrographic seizure activity	0.016	Ki (human 5-HT2BR [5]; clemizole analogs, recombinant human receptor, listed as Comp. 6): 0.258 µM
c1ccc2c(c1)nc(CN1CCCC1)n2CC1CCCCC1 [Compound 4, 1-(Cyclohexylmethyl)-2-[(pyrrolidin-1-yl)methyl]-1H-benzimidazole]	–	–	–	–	specificity for 5-HT2BR over other 5-HT2R subtypes; also recorded: significant preference for 5-HT2BR	0.612	reduced the high-velocity seizure-like swim behavior	effective in suppressing	significant changes in the frequency of events; also recorded: significant suppression of electrographic seizure activity	0.153	Ki (human 5-HT2AR [4]): > 10 µM; Ki (human 5-HT2CR [6]): > 10 µM
Clc1ccc(Cn2ccnc2CN2CCCC2)cc1 [Compound 9, 1-[(4-Chlorophenyl)methyl]-2-[(pyrrolidin-1-yl)methyl]-1H-imidazole]	–	–	–	–	–	–	–	effective in suppressing	–	0.029	Ki (human 5-HT2CR [6]; clemizole analogs, recombinant human receptor, read-out: binding affinity (Ki) 5-HT2CR): 0.447 µM; toxicity after 90-min exposure (scn1lab mutant zebrafish [1]; 250 μM): toxic

— patent publication US20220226508A1, “METHODS AND COMPOSITIONS FOR TREATING EPILEPSY” (THE REGENTS OF THE UNIVERSITY OF CALIFORNIA, priority 2019, published 2022)
